What was measured:
Test in all cases: relative viability (nuclei count vs DMSO), 5 days (fraction); higher = more cells survive
A-427 = test system: A-427
Summary of the method: (§1)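 Five library-drug doses in √10 steps were combined with a fixed anchor-drug dose, or a single drug was given alone, by pin tool to lung cancer cell lines in 1536-well plates the day after seeding. Nuclei were stained and counted after 5 days. Relative viability is the nuclei count in treated wells over that in vehicle wells, taken as the median of duplicate plates.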

COR-L 105 = test system: COR-L 105
Summary of the method: as §1

EMC-BAC-2 = test system: EMC-BAC-2
Summary of the method: as §1

HARA = test system: HARA
Summary of the method: as §1

HCC-366 = test system: HCC-366
Summary of the method: as §1

HCC-827 = test system: HCC-827
Summary of the method: as §1

LCLC-103H = test system: LCLC-103H
Summary of the method: as §1

NCI-H1395 = test system: NCI-H1395
Summary of the method: as §1

NCI-H1437 = test system: NCI-H1437
Summary of the method: as §1

NCI-H1755 = test system: NCI-H1755
Summary of the method: as §1

NCI-H1792 = test system: NCI-H1792
Summary of the method: as §1

NCI-H1915 = test system: NCI-H1915
Summary of the method: as §1

NCI-H2009 = test system: NCI-H2009
Summary of the method: as §1

NCI-H23 = test system: NCI-H23
Summary of the method: as §1

NCI-H460 = test system: NCI-H460
Summary of the method: as §1

NCI-H522 = test system: NCI-H522
Summary of the method: as §1

NCI-H727 = test system: NCI-H727
Summary of the method: as §1

SK-LU-1 = test system: SK-LU-1
Summary of the method: as §1

SW 1573 = test system: SW 1573
Summary of the method: as §1

## CC(=O)O[C@@]12CO[C@@H]1C[C@H](O)[C@@]1(C)C(=O)[C@H](O)C3=C(C)[C@@H](OC(=O)[C@H](O)[C@@H](NC(=O)OC(C)(C)C)c4ccccc4)C[C@@](O)([C@@H](OC(=O)c4ccccc4)[C@H]21)C3(C)C [Docetaxel] + Nc1ncn([C@H]2C[C@H](O)[C@@H](CO)O2)c(=O)n1 [Decitabine] (partner 2 µM)
A-427; first compound 0.0002 µM
  relative viability: 0.568
A-427; first compound 0.000632 µM
  relative viability: 0.569
A-427; first compound 0.002 µM
  relative viability: 0.443
A-427; first compound 0.006325 µM
  relative viability: 0.3
A-427; first compound 0.02 µM
  relative viability: 0.222
COR-L 105; first compound 0.0002 µM
  relative viability: 0.666
COR-L 105; first compound 0.000632 µM
  relative viability: 0.533
COR-L 105; first compound 0.002 µM
  relative viability: 0.442
COR-L 105; first compound 0.006325 µM
  relative viability: 0.394
COR-L 105; first compound 0.02 µM
  relative viability: 0.364
EMC-BAC-2; first compound 0.0002 µM
  relative viability: 0.947
EMC-BAC-2; first compound 0.000632 µM
  relative viability: 0.811
EMC-BAC-2; first compound 0.002 µM
  relative viability: 0.461
EMC-BAC-2; first compound 0.006325 µM
  relative viability: 0.46
EMC-BAC-2; first compound 0.02 µM
  relative viability: 0.299
HARA; first compound 0.0002 µM
  relative viability: 0.459
HARA; first compound 0.000632 µM
  relative viability: 0.314
HARA; first compound 0.002 µM
  relative viability: 0.249
HARA; first compound 0.006325 µM
  relative viability: 0.187
HARA; first compound 0.02 µM
  relative viability: 0.111
HCC-366; first compound 0.0002 µM
  relative viability: 0.292
HCC-366; first compound 0.000632 µM
  relative viability: 0.12
HCC-366; first compound 0.002 µM
  relative viability: 0.107
HCC-366; first compound 0.006325 µM
  relative viability: 0.0547
HCC-366; first compound 0.02 µM
  relative viability: 0.0292
HCC-827; first compound 0.0002 µM
  relative viability: 0.2
HCC-827; first compound 0.000632 µM
  relative viability: 0.343
HCC-827; first compound 0.002 µM
  relative viability: 0.279
HCC-827; first compound 0.006325 µM
  relative viability: 0.251
HCC-827; first compound 0.02 µM
  relative viability: 0.236
LCLC-103H; first compound 0.0002 µM
  relative viability: 0.712
LCLC-103H; first compound 0.000632 µM
  relative viability: 0.796
LCLC-103H; first compound 0.002 µM
  relative viability: 0.761
LCLC-103H; first compound 0.006325 µM
  relative viability: 0.713
LCLC-103H; first compound 0.02 µM
  relative viability: 0.524
NCI-H1395; first compound 0.0002 µM
  relative viability: 0.709
NCI-H1395; first compound 0.000632 µM
  relative viability: 0.731
NCI-H1395; first compound 0.002 µM
  relative viability: 0.635
NCI-H1395; first compound 0.006325 µM
  relative viability: 0.425
NCI-H1395; first compound 0.02 µM
  relative viability: 0.295
NCI-H1437; first compound 0.0002 µM
  relative viability: 0.526
NCI-H1437; first compound 0.000632 µM
  relative viability: 0.629
NCI-H1437; first compound 0.002 µM
  relative viability: 0.406
NCI-H1437; first compound 0.006325 µM
  relative viability: 0.307
NCI-H1437; first compound 0.02 µM
  relative viability: 0.196
NCI-H1755; first compound 0.0002 µM
  relative viability: 0.772
NCI-H1755; first compound 0.000632 µM
  relative viability: 0.788
NCI-H1755; first compound 0.002 µM
  relative viability: 0.604
NCI-H1755; first compound 0.006325 µM
  relative viability: 0.463
NCI-H1755; first compound 0.02 µM
  relative viability: 0.507
NCI-H1792; first compound 0.0002 µM
  relative viability: 0.445
NCI-H1792; first compound 0.000632 µM
  relative viability: 0.394
NCI-H1792; first compound 0.002 µM
  relative viability: 0.376
NCI-H1792; first compound 0.006325 µM
  relative viability: 0.172
NCI-H1792; first compound 0.02 µM
  relative viability: 0.0755
NCI-H1915; first compound 0.0002 µM
  relative viability: 0.245
NCI-H1915; first compound 0.000632 µM
  relative viability: 0.25
NCI-H1915; first compound 0.002 µM
  relative viability: 0.231
NCI-H1915; first compound 0.006325 µM
  relative viability: 0.184
NCI-H1915; first compound 0.02 µM
  relative viability: 0.124
NCI-H2009; first compound 0.0002 µM
  relative viability: 0.438
NCI-H2009; first compound 0.000632 µM
  relative viability: 0.376
NCI-H2009; first compound 0.002 µM
  relative viability: 0.3
NCI-H2009; first compound 0.006325 µM
  relative viability: 0.263
NCI-H2009; first compound 0.02 µM
  relative viability: 0.181
NCI-H23; first compound 0.0002 µM
  relative viability: 0.33
NCI-H23; first compound 0.000632 µM
  relative viability: 0.303
NCI-H23; first compound 0.002 µM
  relative viability: 0.253
NCI-H23; first compound 0.006325 µM
  relative viability: 0.256
NCI-H23; first compound 0.02 µM
  relative viability: 0.157
NCI-H460; first compound 0.0002 µM
  relative viability: 0.443
NCI-H460; first compound 0.002 µM
  relative viability: 0.061
NCI-H460; first compound 0.006325 µM
  relative viability: 0.0383
NCI-H460; first compound 0.02 µM
  relative viability: 0.0286
NCI-H522; first compound 0.0002 µM
  relative viability: 0.641
NCI-H522; first compound 0.000632 µM
  relative viability: 0.571
NCI-H522; first compound 0.002 µM
  relative viability: 0.586
NCI-H522; first compound 0.006325 µM
  relative viability: 0.448
NCI-H522; first compound 0.02 µM
  relative viability: 0.377
NCI-H727; first compound 0.0002 µM
  relative viability: 0.738
NCI-H727; first compound 0.000632 µM
  relative viability: 0.895
NCI-H727; first compound 0.002 µM
  relative viability: 0.709
NCI-H727; first compound 0.006325 µM
  relative viability: 0.663
NCI-H727; first compound 0.02 µM
  relative viability: 0.788
SK-LU-1; first compound 0.0002 µM
  relative viability: 0.613
SK-LU-1; first compound 0.000632 µM
  relative viability: 0.645
SK-LU-1; first compound 0.002 µM
  relative viability: 0.524
SK-LU-1; first compound 0.006325 µM
  relative viability: 0.378
SK-LU-1; first compound 0.02 µM
  relative viability: 0.269
SW 1573; first compound 0.0002 µM
  relative viability: 0.387
SW 1573; first compound 0.000632 µM
  relative viability: 0.296
SW 1573; first compound 0.002 µM
  relative viability: 0.172
SW 1573; first compound 0.006325 µM
  relative viability: 0.165
SW 1573; first compound 0.02 µM
  relative viability: 0.121
